Consider 1 molecule from ChEMBL document CHEMBL4043270, “Design, synthesis and biological evaluation of 2-phenylquinoline-4-carboxamide derivatives as a new class of tubulin polymerization inhibitors” (Bioorg Med Chem, 2017).

For test [1], the system named is HCT-116. Description: Induction of microtubule disruption in human HCT116 cells assessed as change in microtubule architecture at 0.5 uM after 24 hrs by DAPI staining based confocal microscopic method. Type of test: functional, cell-based.
For a further test, the species on record is Homo sapiens. Description: Displacement of colchicine from tubulin (unknown origin) at 0.1 to 10 uM after 1 hr by fluorescence assay.
The next test is filed under the species Bos taurus. Description: Inhibition of bovine tubulin polymerization at 125 to 725 nM measured every 60 secs intervals for 60 mins in presence of GTP by fluorescence assay.
In another test the test system is MDA-MB-468. Description: Antiproliferative activity against human MDA-MB-468 cells by SRB assay. In kind it is functional, cell-based.
In the next test the test system is HeLa. Description: Antiproliferative activity against human HeLa cells by SRB assay. In kind it is functional, cell-based.
A further test relates to SK-OV-3. Description: Antiproliferative activity against human SKOV3 cells by SRB assay. Type of test: functional, cell-based.
In test [2] the test system is HCT-116. Description: Antiproliferative activity against human HCT116 cells by SRB assay. In kind it is functional, cell-based.
For another test, the system named is A549. Description: Antiproliferative activity against human A549 cells by SRB assay. In kind it is functional, cell-based.
The test system of the next test is MRC5. Description: Antiproliferative activity against human MRC5 cells by SRB assay. Type of test: cell-based.
Test [3] deals with HCT-116. Description: Induction of Cyclin B1 accumulation in human HCT116 cells at 0.06 to 1 uM after 24 hrs by Western blot method. In kind it is functional, cell-based.
Test [4] has as its system HCT-116. Description: Cell cycle arrest in human HCT116 cells assessed as accumulation at G1 phase at 125 nM after 48 hrs by […]propidium iodide staining based flow cytometry (reference value: 89.45%). In kind it is functional.
In test [5] the test system is HCT-116. Description: Cell cycle arrest in human HCT116 cells assessed as accumulation at S phase at 125 nM after 48 hrs by […]propidium iodide staining based flow cytometry (reference value: 8.93%). Type of test: functional.
Test [6] relates to HCT-116. Description: Cell cycle arrest in human HCT116 cells assessed as accumulation at G2/M phase at 125 nM after 48 hrs by […]propidium iodide staining based flow cytometry (reference value: 1.62%). Type of test: functional.
Test [7] has as its system HCT-116. Description: Cell cycle arrest in human HCT116 cells assessed as accumulation at G1 phase at 500 nM after 48 hrs by […]propidium iodide staining based flow cytometry (reference value: 89.45%). In kind it is functional.
Test [8] relates to HCT-116. Description: Cell cycle arrest in human HCT116 cells assessed as accumulation at S phase at 500 nM after 48 hrs by […]propidium iodide staining based flow cytometry (reference value: 8.93%). In kind it is functional.
Test [9] deals with HCT-116. Description: Cell cycle arrest in human HCT116 cells assessed as accumulation at G2/M phase at 500 nM after 48 hrs by […]propidium iodide staining based flow cytometry (reference value: 1.62%). Type of test: functional.
Test [10] has as its system HCT-116. Description: Induction of apoptosis in human HCT116 cells assessed as viable cells at 0.5 uM after 24 hrs by annexin-V FITC/propidium iodide staining based flow cytometry (reference value: 97.93%). Type of test: functional. As to conditions: HCT-116, 24 h, read-out: Activity.
For test [11], the system named is HCT-116. Description: Induction of apoptosis in human HCT116 cells assessed as early apoptotic cells at 0.5 uM after 24 hrs by annexin-V FITC/propidium iodide staining based flow cytometry (reference value: 1.08%). Type of test: functional.
The test system of test [12] is HCT-116. Description: Induction of apoptosis in human HCT116 cells assessed as late apoptotic cells at 0.5 uM after 24 hrs by annexin-V FITC/propidium iodide staining based flow cytometry (reference value: 0.96%). In kind it is functional.
Test [13] concerns HCT-116. Description: Induction of apoptosis in human HCT116 cells assessed as necrotic cells at 0.5 uM after 24 hrs by annexin-V FITC/propidium iodide staining based flow cytometry (reference value: 0.03%). Type of test: functional.

The structures appear in SMILES notation. pIC50: −log10 of the molar value. The source made the active and inactive calls. The calls are words filed in the database; no cut-off is given here.

Turning to `COc1cc(NC(=O)c2cc(-c3ccc(C)cc3)nc3ccccc23)cc(OC)c1OC`, the result with HCT-116 [1] and in the test with HCT-116 [3] was Active. Besides, the inhibition result in the test filed under Homo sapiens and in the test filed under Bos taurus was “Active” throughout. Moreover, the negative-log IC50 (pIC50) in the test with MDA-MB-468 was 4.97; with HeLa it was 5.80; in the test with SK-OV-3, 6.30; in the test with HCT-116 [2], 6.70; with A549, 5.24; with MRC5 it was 4.50. Besides, the Activity with HCT-116 [4] was found to be 46.62%; with HCT-116 [5] it was 5.21%; in the test with HCT-116 [6], 48.17%; with HCT-116 [7], 4.93%; in the test with HCT-116 [8] it was 7.87%; in the test on HCT-116 [9], 87.2%. In addition, the Activity came to 45.26% in the test on HCT-116 [11], 39.47% with HCT-116 [12] and 0.04% in the test with HCT-116 [13]. Moreover, in the test with HCT-116 [10], the viability at 0.5 µM amounted to 15.2%.
